Source: patent US11660293B2, “Substituted 2-azabicyclo[3.1.1]heptane and 2-azabicyclo[3.2.1]octane derivatives as orexin receptor antagonists” (Chronos Therapeutics Limited, priority 2017, dated 2023)

Assays:
[1] = Measurement of brain fraction unbound (equilibrium dialysis); assay type: in vitro ADME; settings: pH 7.4, rat brain homogenate, 37° C., read-out: FU brain (%, rat)
Procedure: Measurement of Brain Fraction Unbound (Equilibrium Dialysis)
Brain fractions unbound were determined using equilibrium dialysis in a 96-well format as described in Kalvass and Maurer, 2002. Brain homogenates were prepared using 2 ml/g CSF surrogate (7.30 g/l NaCl, 186.4 mg/l KCl, 239.9 mg/l MgCl2, 185.2 mg/l CaCl2), and 536.0 mg/l Na2HPO4.7H2O, pH 7.4). Dialysis membranes (12-14-kDA cutoff) obtained from Spectrum Laboratories Inc. (Rancho Dominguez, Calif.) were conditioned in water (HPLC grade) for 60 min, followed by 20 min in 20% ethanol, and 15 min in CSF surrogate.
Assay compound concentrations were 5 μM. Diluted brain homogenate was spiked with the compound of interest, and 150-μl aliquots were loaded into the 96-well equilibrium dialysis apparatus and dialyzed against an equal volume of CSF surrogate. Equilibrium was achieved by incubating the 96-well equilibrium dialysis apparatus in a temperature-controlled incubator at 37° C. for 5 h, using an orbital shaker at 125 rpm. At the end of the incubation period, 50-μl aliquots of brain homogenate and buffer were transferred to a 96-well plate, and the composition in each tube was balanced with control fluid to equalize the brain and buffer volumes. Sample extraction was performed by addition of 400 μl of acetonitrile containing internal standard (rolipram). The samples were then vortex-mixed and centrifuged, and 100 μl of supernatants was transferred into a 96-well plate, diluted with 200 μl of 16% acetonitrile/water, and analyzed by liquid chromatography-tandem mass spectrometry (LC-MS/MS).
The brain unbound fraction (FU brain) was calculated from the ratio of analyte/internal standard peak area ratios determined in buffer versus brain homogenate samples using equation (1), which accounts for the effect of tissue dilution on unbound fraction (Kalvass and Maurer, 2002):
[formula] where D is the dilution factor in brain homogenate and fu-diluted is the measured free fraction of diluted brain tissue. Results

[2] = target: T1, human Orexin type 2 receptors (Homo sapiens (Human), UniProt O43614); assay: Scintillation Proximity Assay (SPA) binding assay, [3H]EMPA displacement, HEK-hOX2 membranes
[3] = target: T2, human Orexin type 1 receptors (Homo sapiens (Human), UniProt O43613); assay: Scintillation Proximity Assay (SPA) binding assay, [3H]SB-674042 displacement, CHO-hOX1 membranes
[4] = target: T1, human Orexin type 2 receptors; assay: Intracellular calcium measurement (FLIPR), antagonism of Orexin-A at EC80 in CHO-hOX2 cells
[5] = target: T2, human Orexin type 1 receptors; assay: Intracellular calcium measurement (FLIPR), antagonism of Orexin-A at EC80 in CHO-hOX1 cells

T1 sequence (O43614 whole entry): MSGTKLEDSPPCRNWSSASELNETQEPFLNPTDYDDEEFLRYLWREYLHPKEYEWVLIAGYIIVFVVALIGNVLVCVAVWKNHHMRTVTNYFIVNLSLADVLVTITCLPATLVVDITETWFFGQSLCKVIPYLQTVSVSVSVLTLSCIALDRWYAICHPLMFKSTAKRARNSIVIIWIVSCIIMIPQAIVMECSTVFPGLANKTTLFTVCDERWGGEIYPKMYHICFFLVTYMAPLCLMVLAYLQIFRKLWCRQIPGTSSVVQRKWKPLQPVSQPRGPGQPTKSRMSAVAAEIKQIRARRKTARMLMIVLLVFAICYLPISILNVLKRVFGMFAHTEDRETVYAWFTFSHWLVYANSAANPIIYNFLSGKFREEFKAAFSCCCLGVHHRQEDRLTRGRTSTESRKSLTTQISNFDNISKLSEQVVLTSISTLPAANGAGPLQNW
T2 sequence (O43613 whole entry): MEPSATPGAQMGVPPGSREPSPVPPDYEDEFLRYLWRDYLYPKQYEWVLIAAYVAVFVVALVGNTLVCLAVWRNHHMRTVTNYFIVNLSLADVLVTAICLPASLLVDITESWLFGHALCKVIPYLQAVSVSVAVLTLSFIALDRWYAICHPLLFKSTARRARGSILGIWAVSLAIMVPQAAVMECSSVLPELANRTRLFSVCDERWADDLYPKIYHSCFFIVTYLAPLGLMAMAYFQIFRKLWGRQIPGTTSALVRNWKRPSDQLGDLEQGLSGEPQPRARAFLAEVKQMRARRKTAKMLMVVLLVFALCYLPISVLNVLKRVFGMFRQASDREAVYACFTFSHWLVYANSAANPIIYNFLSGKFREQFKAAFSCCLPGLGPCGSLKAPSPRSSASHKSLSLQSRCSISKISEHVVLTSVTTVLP

| Structure (SMILES) | Ki [4] [nM] | Ki [5] [nM] | also measured |
| --- | --- | --- | --- |
| C[C@@H]1C2CC(C2)N(C(=O)c2nn(C)cc2-c2ncccn2)C1CNc1ccc(C(F)(F)F)cn1 (single isomer, unassigned) [Example 215, N-{[(3R,4S) or (3S,4R)-4-methyl-2-{1-methyl-4-(pyrimidin-2-yl)-1H-pyrazole-3-carbonyl]-2-azabicyclo[3.1.1]heptan-3-yl]methyl}-5-(trifluoromethyl)pyridin-2-amine] |  |  | fraction unbound at 5 h, 5 μM [1]: 0.0761; OX2 pKi (SPA binding) ([2]; Table 2, [3H]EMPA 2 nM): 4.79; OX1 pKi (SPA binding) ([3]; Table 2, [3H]SB-674042 2 nM): 8.15 |
| Cc1ccc(-n2nccn2)c(C(=O)N2C3CC(C3)[C@@H](C)C2CNc2ccc(C(F)(F)F)cn2)n1 (single isomer, unassigned) [Example 183, N-{[(3R,4S) or (3S,4R)-4-methyl-2-[6-methyl-3-(2H-1,2,3-triazol-2-yl)pyridine-2-carbonyl]-2-azabicyclo[3.1.1]heptan-3-yl]methyl}-5-(trifluoromethyl)pyridin2-amine] |  |  | fraction unbound at 5 h, 5 μM [1]: 0.0256; OX2 pKi (SPA binding) ([2]; Table 2, [3H]EMPA 2 nM): 5.26; OX1 pKi (SPA binding) ([3]; Table 2, [3H]SB-674042 2 nM): 8.31 |
| C[C@@H]1C2CC(C2)N(C(=O)c2cc(F)ccc2-n2nccn2)C1CNc1cnc(C(F)(F)F)cn1 (single isomer, unassigned) [Example 223, N-{[(3R,4S) or (3S,4R)-2-[5-fluoro-2-(2H-1,2,3-triazol-2-yl)benzoyl]-4-methyl-2-azabicyclo[3.1.1]heptan-3-yl]methyl}-5-(trifluoromethyl)pyrazin-2-amine] |  |  | fraction unbound at 5 h, 5 μM [1]: 0.022; OX2 pKi (SPA binding) ([2]; Table 2, [3H]EMPA 2 nM): 4.98; OX1 pKi (SPA binding) ([3]; Table 2, [3H]SB-674042 2 nM): 8.13 |
| C[C@@H]1C2CC(C2)N(C(=O)c2nn(C)cc2-c2ncccn2)C1CNc1ccc(C(F)(F)F)cn1 (mixture of isomers) [Example 213, cis-N-({4-methyl-2-[1-methyl-4-(pyrimidin-2-yl)-1H-pyrazole-3-carbonyl]-2-azabicyclo[3.1.1]heptan-3-yl}methyl)-5-(trifluoromethyl)pyridin-2-amine] |  |  | fraction unbound at 5 h, 5 μM [1]: 0.0876; OX2 pKi (SPA binding) ([2]; Table 2, [3H]EMPA 2 nM): 4.39; OX1 pKi (SPA binding) ([3]; Table 2, [3H]SB-674042 2 nM): 7.91 |
| Cc1nc(C(=O)N2C(COc3ccc(F)cc3)CC3CC2C3)c(-c2ccccc2)s1 (racemic) [Example 1] | 295 | 6.31 | OX2 pKi (SPA binding) ([2]; Table 1, [3H]EMPA 2 nM): 6.97; OX1 pKi (SPA binding) ([3]; Table 1, [3H]SB-674042 2 nM): 8.14 |
| Cc1ccc(-n2nccn2)c(C(=O)N2C3CC(C3)[C@@H](C)C2CNc2cnc(C(F)(F)F)cn2)n1 (single isomer, unassigned) [Example 167, N-{[(3R,4S) or (3S,4R)-4-methyl-2-[6-methyl-3-(2H-1,2,3-triazol-2-yl)pyridine-2-carbonyl]-2-azabicyclo[3.1.1]heptan-3-yl]methyl}-5-(trifluoromethyl)pyrazin-2-amine] |  |  | fraction unbound at 5 h, 5 μM [1]: 0.0593; OX2 pKi (SPA binding) ([2]; Table 2, [3H]EMPA 2 nM): 5.13; OX1 pKi (SPA binding) ([3]; Table 2, [3H]SB-674042 2 nM): 8.12 |
| Cc1ccc(-c2nccs2)c(C(=O)N2C(COc3ccc(F)cc3)CC3CC2C3)n1 (single isomer, unassigned) [Example 6, (3S or 3R) 3-(4-fluorophenoxymethyl)-2-{[6-methyl-3-(1,3-thiazol-2-yl)pyridin-2-yl]carbonyl}-2-azabicyclo[3.1.1]heptane] | 93.3 | 5.13 |  |
| Cc1ccc(-c2ncccn2)c(C(=O)N2C(COc3ccc(F)cc3)CC3CC2C3)n1 (single isomer, unassigned) [Example 15, (3S or 3R) 3-(4-fluorophenoxymethyl)-2-{[6-methyl-3-(pyrimidin-2-yl)pyridin-2-yl]carbonyl}-2-azabicyclo[3.1.1]heptane] | 52.5 | 4.07 |  |
| Cc1ccc(-c2ncccn2)c(C(=O)N2C(CCOc3ccc(F)cc3)CC3CC2C3)c1 (single isomer, unassigned) [Example 42, (3S or 3R) 3-[2-(4-fluorophenoxy)ethyl]-2-[5-methyl-2-(pyrimidin-2-yl)benzoyl]-2-azabicyclo[3.1.1]heptane] | 107 | 18.2 |  |
| Cc1ccc(-c2nccs2)c(C(=O)N2C(COc3ccc(F)cn3)CC3CC2C3)c1 (racemic) [Example 25] | 209 | 30.2 |  |
| Cc1ccc(-c2nccs2)c(C(=O)N2C(COc3ccc(F)cn3)CC3CC2C3)n1 (centres unmarked) [Example 31] | 776 | 97.7 |  |
| Cc1nc(C(=O)N2C3CC(C3)C(C)C2COc2ccc(F)cn2)c(-c2ccccc2)s1 (mixture of isomers) [Example 77, CIS/TRANS 3-{[(5-fluoropyridin-2-yl)oxy]methyl}-4-methyl-2-(2-methyl-5-phenyl-1,3-thiazole-4-carbonyl)-2-azabicyclo[3.1.1]heptane] | > 1000 | 21.9 |  |
| Cc1ccc(-c2ncccn2)c(C(=O)N2C(COc3ccc(Cl)cn3)CC3CC2C3)c1 (racemic) [Example 32] | 513 | 72.4 |  |
| Cc1ccc(-c2ncccn2)c(C(=O)N2C3CC(C3)[C@H](C)[C@@H]2COc2ccc(F)cn2)n1 (single isomer, unassigned) [Example 81, (3S,4R or 3R,4S) 3-{[(5-fluoropyridin-2-yl)oxy]methyl}-4-methyl-2-[6-methyl-3-(pyrimidin-2-yl)pyridine-2-carbonyl]-2-azabicyclo[3.1.1]heptane] | 58.9 | 9.77 |  |
| Cc1ccc(-c2nccs2)c(C(=O)N2C(COc3ccc(F)cc3)CC3CC2C3)c1 (single isomer, unassigned) [Example 9, (3S or 3R) 3-(4-fluorophenoxymethyl)-2-{[5-methyl-2-(1,3-thiazol-2-yl)phenyl]carbonyl}-2-azabicyclo[3.1.1]heptane] | 79.4 | 3.98 |  |
| Cc1ccc(-c2ncccn2)c(C(=O)N2C(COc3ccc(C(F)(F)F)cn3)CC3CC2C3)c1 (single isomer, unassigned) [Example 36, (3S or 3R) 2-{[5-methyl-2-(pyrimidin-2-yl)phenyl]carbonyl}-3-({[5-(trifluoromethyl)pyridin-2-yl]oxy}methyl)-2-azabicyclo[3.1.1]heptane] | 200 | 67.6 |  |
| Cc1ccc(-n2nccn2)c(C(=O)N2C(COc3ccc(F)cc3)CC3CC2C3)c1 (racemic) [Example 10] | 347 | 14.8 |  |
| Cc1nc(C(=O)N2C3CC(C3)[C@@H](C)[C@@H]2COc2ccc(F)cc2)c(-c2ccccc2)s1 (single isomer, unassigned) [Example 67, (3S,4S or 3R,4R) 3-(4-fluorophenoxymethyl)-4-methyl-2-(2-methyl-5-phenyl-1,3-thiazole-4-carbonyl)-2-azabicyclo[3.1.1]heptane] | 562 | 1.38 |  |
| Cc1nc(C(=O)N2C3CC(C3)C(C)C2COc2nccc3ccccc23)c(-c2ccccc2)s1 (mixture of isomers) [Example 83] | 46.8 | 3.47 |  |
| Cc1nc(C(=O)N2C3CC(C3)C(C)C2COc2ccc(F)cc2)c(-c2ccccc2)s1 (mixture of isomers) [Example 64, CIS/TRANS 3-(4-fluorophenoxymethyl)-4-methyl-2-(2-methyl-5-phenyl-1,3-thiazole-4-carbonyl)-2-azabicyclo[3.1.1]heptane] | 282 | 3.16 |  |
| Cc1nc(C(=O)N2C3CC(C3)C(C)C2COc2cnc3ccc(Cl)cc3n2)c(-c2ccccc2)s1 (mixture of isomers) [Example 84, CIS/TRANS 7-chloro-2-{[4-methyl-2-(2-methyl-5-phenyl-1,3-thiazole-4-carbonyl)-2-azabicyclo[3.1.1]heptan-3-yl]methoxy}quinoxaline] | 1860 | 75.9 |  |
| Cc1ccc(-c2nccs2)c(C(=O)N2C(COc3ccc(F)cc3)CC3CC2C3)c1 (racemic) [Example 7] | 141 | 7.08 |  |
| Cc1ccc(-c2ncccn2)c(C(=O)N2C3CC(C3)C(C)C2COc2ccc(F)cc2)c1 (mixture of isomers) [Example 69, CIS/TRANS 3-(4-fluorophenoxymethyl)-4-methyl-2-[5-methyl-2-(pyrimidin-2-yl)benzoyl]-2-azabicyclo[3.1.1]heptane] | 295 | 12.9 |  |
